Experimental findings from patent EP0148431A1, “Benzimidazoles, their preparation, and medicaments containing these compounds” (Dr. Karl Thomae GmbH, priority 1983, dated 1985) are described below.

The experiment has as its system narkotisierten Katze. The settings on record: anaesthetised cats (pentobarbital sodium 40 mg/kg i.p.), mean of at least 3 cats.

Each structure is given as a SMILES string. Where two headings read alike, the source gives them in different places.

Method: Beispielsweise wurden die Verbindungen • A = 2-(2-Methoxy-4-methylsulfonyl-phenyl)-5-cyano-benzimidazol und • B = 2-(2-Methoxy-4-propargyloxy-phenyl)-5-cyano-benzimidazol auf ihre biologischen Eigenschaften wie folgt untersucht: • Bestimmung der Blutdruckwirkung und der positiv inotropen Wirkung an der narkotisierten Katze
Die Untersuchungen wurden an Katzen durchgeführt, die mit Pentobarbital-Natrium (40 mg/kg i.p.) narkotisiert waren. Die Tiere atmeten spontan. Der arterielle Blutdruck wurde in der Aorta abdominalis mit einem Statham-Druckwandler (P 23 Dc) gemessen. Für die Erfassung der positiv inotropen Wirkung wurde mit einem Kathetertipmanometer (Millar PC-350 A) der Druck in der linken Herzkammer gemessen. Daraus wurde der Kontraktilitätsparameter d^p/dtmax mittels eines Analogdifferenzierers gewonnen. Die zu untersuchenden Substanzen wurden in eine Vena femoralis injiziert. Als Lösungsmittel diente Polydiol 200. Jede Substanz wurde an mindestens 3 Katzen geprüft.

As to `COc1cc(S(C)(=O)=O)ccc1-c1nc2ccc(C#N)cc2[nH]1` [A, 2-(2-Methoxy-4-methylsulfonyl-phenyl)-5-cyano-benzimidazol], the “Zunahme von dp/dtmax in %” value reads like this: (0,2 mg/kg i.v.) 51%; (0,6 mg/kg i.v.) 96%; (2,0 mg/kg i.v.) 79%.

For the compound `C#CCOc1ccc(-c2nc3ccc(C#N)cc3[nH]2)c(OC)c1` [B, 2-(2-Methoxy-4-propargyloxy-phenyl)-5-cyano-benzimidazol], the “Zunahme von dp/dtmax in %” value is, setting by setting: (0,2 mg/kg i.v.) 33%; (0,6 mg/kg i.v.) 48%; (2,0 mg/kg i.v.) 85%.
